From PubChem BioAssay AID1963984 (Molecular Pharmacology Branch, DTP, NCI, 2024)

Test system: 233499-124-R-J3-PDC spheroids with HUVEC/MSC, viability
Test: Anticancer human tumor 233499-124-R-J3-PDC patient-derived colon adenocarcinoma cell line growth inhibition [PI3K]
Conditions: for IC50: curve of first compound; for viability, T/C: stronger effect = lower value
Procedure, shortened: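 High-throughput combination screen: PI3K inhibitors crossed with targeted small molecules on complex spheroids of tumor cells, HUVEC and MSCs at 37 degrees C, 5% CO2. Top concentration was at or near clinical Cmax (otherwise 10 microM), with half-log decrements.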

[1] = second compound 0.00316 µM, first compound 0.0316 µM
[2] = second compound 0.00316 µM, first compound 0.1 µM
[3] = second compound 0.00316 µM, first compound 0.316 µM
[4] = second compound 0.00316 µM, first compound 1 µM
[5] = second compound 0.00316 µM, first compound 3.16 µM
[6] = second compound 0.00316 µM, first compound 10 µM
[7] = second compound 0.01 µM, first compound 0.0316 µM
[8] = second compound 0.01 µM, first compound 0.1 µM
[9] = second compound 0.01 µM, first compound 0.316 µM
[10] = second compound 0.01 µM, first compound 1 µM
[11] = second compound 0.01 µM, first compound 3.16 µM
[12] = second compound 0.01 µM, first compound 10 µM
[13] = second compound 0.0316 µM, first compound 0.0316 µM
[14] = second compound 0.0316 µM, first compound 0.1 µM
[15] = second compound 0.0316 µM, first compound 0.316 µM
[16] = second compound 0.0316 µM, first compound 1 µM
[17] = second compound 0.0316 µM, first compound 3.16 µM
[18] = second compound 0.0316 µM, first compound 10 µM
[19] = second compound 0.1 µM, first compound 0.0316 µM
[20] = second compound 0.1 µM, first compound 0.1 µM
[21] = second compound 0.1 µM, first compound 0.316 µM
[22] = second compound 0.1 µM, first compound 1 µM
[23] = second compound 0.1 µM, first compound 3.16 µM
[24] = second compound 0.1 µM, first compound 10 µM
[25] = second compound 0.316 µM, first compound 0.0316 µM
[26] = second compound 0.316 µM, first compound 0.1 µM
[27] = second compound 0.316 µM, first compound 0.316 µM
[28] = second compound 0.316 µM, first compound 1 µM
[29] = second compound 0.316 µM, first compound 3.16 µM
[30] = second compound 0.316 µM, first compound 10 µM
[31] = second compound 1 µM, first compound 0.0316 µM
[32] = second compound 1 µM, first compound 0.1 µM
[33] = second compound 1 µM, first compound 0.316 µM
[34] = second compound 1 µM, first compound 1 µM
[35] = second compound 1 µM, first compound 3.16 µM
[36] = second compound 1 µM, first compound 10 µM
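Note: spheroids exposed to agents for seven days before readout.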
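Throughout, for viability, T/C: percent viability relative to DMSO vehicle control taken as 100%.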

`CC(C)NCC(C(=O)N1CCN(c2ncnc3c2C(C)CC3O)CC1)c1ccc(Cl)cc1` (stereo unspecified) + COc1c(OCCCN2CCOCC2)ccc2c3n(c(=NC(=O)c4cnc(N)nc4)nc12)CCN3 was tested, and the IC50 (second compound 0.00316 µM) was greater than 10000 nM, the IC50 (second compound 0.01 µM) was greater than 10000 nM and the IC50 (second compound 0.0316 µM) was greater than 10000 nM. It also gave an IC50 (second compound 0.1 µM) greater than 10000 nM, an IC50 (second compound 0.316 µM) of less than 31.6 nM and an IC50 (second compound 1 µM) of less than 31.6 nM. For the same molecule, the viability, T/C [1] was 92.1%, the viability, T/C [2] was 88.9% and the viability, T/C [3] was 74%. It also gave a viability, T/C [4] of 81.8%, a viability, T/C [5] of 98.8% and a viability, T/C [6] of 81.5%. For the same molecule, the viability, T/C [7] was 103%, the viability, T/C [8] was 96.6% and the viability, T/C [9] was 82.7%. It also gave a viability, T/C [10] of 97.1%, a viability, T/C [11] of 90% and a viability, T/C [12] of 80.2%. For the same molecule, the viability, T/C [13] was 81%, the viability, T/C [14] was 98.1% and the viability, T/C [15] was 76.6%. For the same molecule, the viability, T/C [16] was 84.4%, the viability, T/C [17] was 84.3% and the viability, T/C [18] was 84.1%. It also gave a viability, T/C [19] of 68.4%, a viability, T/C [20] of 76.4% and a viability, T/C [21] of 61.4%. It also gave a viability, T/C [22] of 52.2%, a viability, T/C [23] of 49.7% and a viability, T/C [24] of 65.8%. The viability, T/C [25] was 32.2%, the viability, T/C [26] was 32% and the viability, T/C [27] was 31.9%. For the same molecule, the viability, T/C [28] was 17.1%, the viability, T/C [29] was 35.4% and the viability, T/C [30] was 20.6%. For the same molecule, the viability, T/C [31] was 5.67%, the viability, T/C [32] was 11.1% and the viability, T/C [33] was 6.6%. The viability, T/C [34] was 11.4%, the viability, T/C [35] was 16.2% and the viability, T/C [36] was 10.2%.

Work on `CCN1CCN(Cc2ccc(Nc3ncc(F)c(-c4cc(F)c5nc(C)n(C(C)C)c5c4)n3)nc2)CC1` + COc1c(OCCCN2CCOCC2)ccc2c3n(c(=NC(=O)c4cnc(N)nc4)nc12)CCN3 yielded an IC50 (second compound 0.00316 µM) greater than 1000 nM, an IC50 (second compound 0.01 µM) of 816 nM and an IC50 (second compound 0.0316 µM) of 330 nM. It also gave an IC50 (second compound 0.1 µM) of 9.08 nM, an IC50 (second compound 0.316 µM) of less than 3.16 nM and an IC50 (second compound 1 µM) of less than 3.16 nM. For the same molecule, the viability, T/C (second compound 0.00316 µM, first compound 0.00316 µM) was 81.7%, the viability, T/C (second compound 0.00316 µM, first compound 0.01 µM) was 92% and the viability, T/C [1] was 79.2%. The viability, T/C [2] was 60.8%, the viability, T/C [3] was 77.3% and the viability, T/C [4] was 48.6%. The viability, T/C (second compound 0.01 µM, first compound 0.00316 µM) was 84.3%, the viability, T/C (second compound 0.01 µM, first compound 0.01 µM) was 105% and the viability, T/C [7] was 97%. For the same molecule, the viability, T/C [8] was 83.6%, the viability, T/C [9] was 71.2% and the viability, T/C [10] was 45.5%. The viability, T/C (second compound 0.0316 µM, first compound 0.00316 µM) was 89.2%, the viability, T/C (second compound 0.0316 µM, first compound 0.01 µM) was 85.6% and the viability, T/C [13] was 80.9%. The viability, T/C [14] was 57%, the viability, T/C [15] was 59.6% and the viability, T/C [16] was 23.7%. The viability, T/C (second compound 0.1 µM, first compound 0.00316 µM) was 81.3%, the viability, T/C (second compound 0.1 µM, first compound 0.01 µM) was 46% and the viability, T/C [19] was 49.2%. For the same molecule, the viability, T/C [20] was 49.1%, the viability, T/C [21] was 44.4% and the viability, T/C [22] was 32%. The viability, T/C (second compound 0.316 µM, first compound 0.00316 µM) was 34.3%, the viability, T/C (second compound 0.316 µM, first compound 0.01 µM) was 16.4% and the viability, T/C [25] was 30.5%. For the same molecule, the viability, T/C [26] was 20.7%, the viability, T/C [27] was 23.7% and the viability, T/C [28] was 22.9%. The viability, T/C (second compound 1 µM, first compound 0.00316 µM) was 8.08%, the viability, T/C (second compound 1 µM, first compound 0.01 µM) was 11.5% and the viability, T/C [31] was 10.4%. The viability, T/C [32] was 9.39%, the viability, T/C [33] was 7.45% and the viability, T/C [34] was 11.2%.

For `Cn1ncc(Cl)c1-c1cc(C(=O)NC(CN)Cc2cccc(F)c2)sc1Cl` (stereo unspecified) + COc1c(OCCCN2CCOCC2)ccc2c3n(c(=NC(=O)c4cnc(N)nc4)nc12)CCN3, the IC50 (second compound 0.00316 µM) was 4100 nM, the IC50 (second compound 0.01 µM) was 2780 nM and the IC50 (second compound 0.0316 µM) was 1640 nM. It also gave an IC50 (second compound 0.1 µM) of 516 nM, an IC50 (second compound 0.316 µM) of less than 31.6 nM and an IC50 (second compound 1 µM) of less than 31.6 nM. The viability, T/C [1] was 70.1%, the viability, T/C [2] was 88.1% and the viability, T/C [3] was 83.2%. It also gave a viability, T/C [4] of 83.7%, a viability, T/C [5] of 58.9% and a viability, T/C [6] of 19.6%. It also gave a viability, T/C [7] of 81.6%, a viability, T/C [8] of 97.4% and a viability, T/C [9] of 98.8%. For the same molecule, the viability, T/C [10] was 77.8%, the viability, T/C [11] was 46.8% and the viability, T/C [12] was 46.1%. The viability, T/C [13] was 81.9%, the viability, T/C [14] was 80.1% and the viability, T/C [15] was 78.8%. It also gave a viability, T/C [16] of 59.6%, a viability, T/C [17] of 36.3% and a viability, T/C [18] of 20.5%. It also gave a viability, T/C [19] of 61.7%, a viability, T/C [20] of 62.8% and a viability, T/C [21] of 56.9%. The viability, T/C [22] was 37.7%, the viability, T/C [23] was 36.7% and the viability, T/C [24] was 16.1%. For the same molecule, the viability, T/C [25] was 21.4%, the viability, T/C [26] was 42.5% and the viability, T/C [27] was 19.2%. For the same molecule, the viability, T/C [28] was 34.3%, the viability, T/C [29] was 31.9% and the viability, T/C [30] was 11.3%. The viability, T/C [31] was 8.63%, the viability, T/C [32] was 9.16% and the viability, T/C [33] was 15.4%. It also gave a viability, T/C [34] of 10.9%, a viability, T/C [35] of 7.03% and a viability, T/C [36] of 1.23%.
